This is an account of results in paper PMC8163982, “Partial agonism improves the anti-hyperglycaemic efficacy of an oxyntomodulin-derived GLP-1R/GCGR co-agonist” (Molecular Metabolism, 2021).

A word on the Emax: it is the greatest response seen or fitted, relative to the assay's reference.

Where a SMILES comes first, the peptide text is derived from it. [ ]: non-standard residue; d: D form. Aib = CC(C)(N)C(=O)O

The target of data set [1] is T1, GCGR (Homo sapiens, UniProt P47871). The experiment in a line: cAMP accumulation in Huh7-GCGR cells. Type of data set: cell-based. Also on record: expressed in transfected cells; host or cells: Huh7. Conditions: mean ± SEM, n = 6; for Emax: expressed relative to 10 μM forskolin response. How it is done:
(§1) HEK293T cells were maintained in DMEM supplemented with 10% FBS and 1% penicillin/streptomycin. PathHunter CHO–K1-βarr2-EA cells stably expressing human GLP-1R, GCGR, or GIPR and PathHunter CHO–K1-βarr1-EA cells stably expressing GCGR were obtained from DiscoverX and maintained in Ham's F12 medium with 10% FBS and 1% penicillin/streptomycin. Stable HEK293-SNAP-GLP-1R cells were maintained in DMEM supplemented with 10% FBS, 1% penicillin/streptomycin, and 1 mg/ml of G418. INS-1 832/3 cells, a gift from Professor Chris Newgard (Duke University), were maintained in RPMI with 11 mM of glucose supplemented with 10% FBS, 10 mM of HEPES, 1 mM of pyruvate, 50 μM of β-mercaptoethanol, and 1% penicillin/streptomycin. Huh7 cells stably expressing human GCGR (Huh7-GCGR) were maintained in DMEM supplemented with 10% FBS, 1 mg/ml of G418, and 1% penicillin/streptomycin.
(§2) PathHunter cells were stimulated with the indicated concentration of agonist for 30 min at 37 °C in serum-free medium without phosphodiesterase inhibitors. INS-1 832/3 cells were stimulated with the indicated concentration of agonist for 10 min at 37 °C in serum-free medium with 100 μM of 3-isobutyl-1-methylxanthine (IBMX). Primary dispersed mouse islet cells prepared by triturating intact islets in 0.05% trypsin/EDTA for 3 min at 37 °C were stimulated with the indicated concentration of agonist for 5 min at 37 °C in serum-free medium with 11 mM of glucose and 500 μM of IBMX. Primary mouse hepatocytes were stimulated in serum-free medium with 100 μM of IBMX for 10 min or 16 h in serum-free medium with 100 μM of IBMX added for the final 10 min of incubation. Huh7-GCGR cells were stimulated in serum-free medium without phosphodiesterase inhibitors for 10 min or for 16 h in serum-free medium. Where relevant, forskolin (10 μM) was added as a positive or normalisation control. At the end of each incubation, cAMP was then assayed by HTRF (Cisbio cAMP Dynamic 2) and concentration-response curves were constructed with 3-parameter curve fitting using Prism 8.0.

The next data set addresses T2, recombinant DPP-4 (Homo sapiens, UniProt P27487).
T2 construct: purchased R&D Systems
Nature of the data set: DPP-4 peptide degradation assay. Type of data set: in vitro ADME. Conditions: 10 nmol peptide in 750 μl 100 mM Tris–HCl pH 8, 10 mU recombinant DPP-4, 37 °C, 1 or 24 h, intact peptide by RP-HPLC (C18), UV 214 nm, vs no-enzyme control, n = 3. How it is done: Then, 10 mU of recombinant DPP-4 (R&D Systems) or no enzyme as a control for non-enzymatic degradation over the same time period was added to the reconstituted peptide. Reactions were incubated at 37 °C and 120 μl samples were collected from the reaction vessel at the indicated time points. Then, 5 μl of 10% trifluoroacetic acid (TFA) was added to each sample to terminate enzyme activity. The samples were analysed by reverse-phase high-performance liquid chromatography (HPLC) with a linear acetonitrile/water gradient acidified with 0.1% TFA on Phenomenex Aeris Peptide 3.6 μm XB-C18 columns (150 × 4.6 mm). The eluted peptides were detected at 214 nm. Peptide degradation was calculated by comparing the area under the peak of the original compound with and without enzyme.

Data set [2] has as its target T3, GLP-1R (Homo sapiens, UniProt P43220). Nature of the data set: cAMP production (HTRF) in PathHunter CHO-K1 cells expressing GLP-1R. Also on record: host or cells: PathHunter CHO-K1-βarr2-EA. Type of data set: cell-based. Particulars: 30 min, mean ± SEM, n = 6; for EC50: 37 °C, serum-free medium, no phosphodiesterase inhibitors, read-out: GLP-1R cAMP (CHO–K1) pEC50 (converted); for Emax: CHO-K1, normalised to globally fitted maximum response. How it is done:
as §1, §2
On the technique in general: cAMP levels reflect the balance of adenylyl cyclase and phosphodiesterase activity.

Data set [3] concerns the target T1, GCGR. Nature of the data set: cAMP production (HTRF) in PathHunter CHO-K1 cells expressing GCGR. Type of data set: cell-based. Also on record: expressed in transfected cells. Particulars: 30 min, mean ± SEM, n = 6; for EC50: 37 °C, serum-free medium, no phosphodiesterase inhibitors, read-out: GCGR CAMP (CHO–K1) pEC50 (converted); for Emax: CHO-K1, normalised to globally fitted maximum response. The protocol: as §1, §2

The target in data set [4] is T1, GCGR. The experiment in a line: NanoBiT β-arrestin-2 recruitment to GCGR-SmBiT in HEK293T cells. Type of data set: cell-based. Further details: expressed in transfected cells; host or cells: HEK293T. Particulars: SRB103 pair, mean ± SEM, n = 6; for Emax: HEK-293T, normalised to full agonist response, read-out: GCGR βarr2 (HEK293T) Emax; for EC50: 3-parameter fit, read-out: GCGR βarr2 (HEK293T) pEC50 (converted). In general terms: Activated receptors often draw arrestin, which recruitment assays turn into a signal.

Data set [5] concerns the target T3, GLP-1R. Nature of the data set: NanoBiT β-arrestin-2 recruitment to GLP-1R-SmBiT in HEK293T cells. Type of data set: cell-based. Particulars: SRB103 pair, mean ± SEM, n = 6; for Emax: HEK-293T, normalised to full agonist response, read-out: GLP-1R βarr2 (HEK293T) Emax; for EC50: 3-parameter fit, read-out: GLP-1R βarr2 (HEK293T) pEC50 (converted). The protocol: The assay was performed as previously described. […] (gifts from Professor Nevin Lambert, Medical College of Georgia) or 0.05 μg of GLP-1R-SmBiT and 0.05 μg of LgBiT-β-arrestin-2 (Promega) plus 0.9 μg of pcDNA3.1 for 24 h. The cells were detached with EDTA, resuspended in HBSS, and furimazine (Promega) was added at a 1:50 dilution from the manufacturer's pre-prepared stock. After dispensing into 96-well white plates, a baseline read of the luminescent signals was serially recorded for 5 min using a FlexStation 3 instrument at 37 °C before the indicated concentration of ligand was added, after which the signals were repeatedly recorded for 30 min. […] Bias was calculated using two approaches. First, the log max/EC50 method was used, with the ratio of Emax to EC50 from 3-parameter fits for each ligand used to quantify agonism. After log10 transformation, responses were expressed relative to the reference agonist on a per assay basis to obtain Δlog(Emax/EC50) for each pathway. Pathway-specific values were then expressed relative to each other to obtain ΔΔlog(Emax/EC50), that is, the log bias factor. Second, a method derived from kinetic curve fitting was used. Here, kinetic responses for a single maximal agonist concentration were normalised at each time point to the vehicle response prior to curve fitting. Mini-Gs responses were fitted using the one-phase exponential association equation in Prism 8.0. β-arrestin-2 responses were fitted using the biexponential equation described in [29]. […] Pathway-specific values were then expressed relative to each other to obtain ΔΔlog kτ , that is, the log bias factor.

Setting [6] is: 16 h, read-out: Huh7-GCGR cAMP,16 h Emax.
[7] abbreviates: 16 h, read-out: Huh7-GCGR cAMP,16 h pEC50 (converted).
The mark [8] stands for this setting: Huh7-GCGR cAMP, 10 min pEC50, 10 min, no phosphodiesterase inhibitors.
[9] abbreviates: read-out: Huh7-GCGR cAMP, 10 min Emax, 10 min.

T3 sequence (P43220 24-463): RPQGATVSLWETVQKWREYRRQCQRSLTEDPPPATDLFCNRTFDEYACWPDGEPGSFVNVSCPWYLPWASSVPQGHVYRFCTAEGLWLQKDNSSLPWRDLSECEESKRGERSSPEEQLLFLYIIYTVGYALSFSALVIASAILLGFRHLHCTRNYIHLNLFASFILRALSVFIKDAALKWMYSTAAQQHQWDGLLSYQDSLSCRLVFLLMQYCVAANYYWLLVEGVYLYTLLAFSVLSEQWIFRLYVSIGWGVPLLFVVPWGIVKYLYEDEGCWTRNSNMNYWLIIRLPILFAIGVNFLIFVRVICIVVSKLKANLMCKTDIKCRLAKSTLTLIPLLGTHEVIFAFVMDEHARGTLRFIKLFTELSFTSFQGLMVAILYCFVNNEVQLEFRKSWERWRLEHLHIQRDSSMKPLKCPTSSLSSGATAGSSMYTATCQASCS
T1 sequence (P47871 26-477): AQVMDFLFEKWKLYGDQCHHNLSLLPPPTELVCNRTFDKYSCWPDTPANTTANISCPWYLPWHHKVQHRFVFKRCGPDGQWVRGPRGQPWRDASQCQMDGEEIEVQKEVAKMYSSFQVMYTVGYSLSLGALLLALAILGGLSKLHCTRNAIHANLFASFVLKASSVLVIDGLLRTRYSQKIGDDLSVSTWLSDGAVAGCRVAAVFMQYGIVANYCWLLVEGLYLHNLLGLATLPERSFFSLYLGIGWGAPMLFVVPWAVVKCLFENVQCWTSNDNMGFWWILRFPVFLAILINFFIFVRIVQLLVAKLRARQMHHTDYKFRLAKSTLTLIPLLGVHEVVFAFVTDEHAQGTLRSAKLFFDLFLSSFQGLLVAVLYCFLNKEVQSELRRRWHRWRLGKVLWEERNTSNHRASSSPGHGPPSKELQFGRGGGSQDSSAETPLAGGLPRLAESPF
T2 sequence (P27487 whole entry, species assumed): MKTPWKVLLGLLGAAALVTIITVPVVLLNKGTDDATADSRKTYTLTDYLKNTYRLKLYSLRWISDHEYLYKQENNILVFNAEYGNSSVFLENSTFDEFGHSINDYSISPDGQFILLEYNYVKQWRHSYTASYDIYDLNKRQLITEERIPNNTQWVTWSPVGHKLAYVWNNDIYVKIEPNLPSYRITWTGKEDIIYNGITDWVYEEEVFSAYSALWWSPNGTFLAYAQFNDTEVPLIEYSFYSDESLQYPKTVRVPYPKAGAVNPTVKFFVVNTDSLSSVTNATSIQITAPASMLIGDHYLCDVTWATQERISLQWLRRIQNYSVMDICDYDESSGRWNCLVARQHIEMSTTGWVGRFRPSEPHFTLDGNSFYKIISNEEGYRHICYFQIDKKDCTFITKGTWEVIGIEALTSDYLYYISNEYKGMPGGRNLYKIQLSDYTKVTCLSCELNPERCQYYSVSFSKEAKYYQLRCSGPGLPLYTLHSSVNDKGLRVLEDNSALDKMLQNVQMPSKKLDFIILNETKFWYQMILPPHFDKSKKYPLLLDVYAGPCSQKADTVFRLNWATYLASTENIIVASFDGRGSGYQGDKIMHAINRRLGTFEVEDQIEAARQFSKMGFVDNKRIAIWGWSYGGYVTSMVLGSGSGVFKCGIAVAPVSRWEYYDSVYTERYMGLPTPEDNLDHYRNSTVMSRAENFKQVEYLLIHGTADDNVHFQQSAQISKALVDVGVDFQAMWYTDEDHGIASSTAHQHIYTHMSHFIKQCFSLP

In the case of `CC[C@H](C)[C@H](NC(=O)[C@H](Cc1ccccc1)NC(=O)[C@H](CCC(=O)O)NC(=O)[C@H](CCC(N)=O)NC(=O)[C@H](C)NC(=O)[C@H](CCCNC(=N)N)NC(=O)[C@H](CCCCN)NC(=O)[C@H](C)NC(=O)[C@H](CC(=O)O)NC(=O)[C@H](CC(C)C)NC(=O)[C@H](Cc1ccc(O)cc1)NC(=O)[C@H](CCCCN)NC(=O)[C@H](CO)NC(=O)[C@H](Cc1ccc(O)cc1)NC(=O)[C@H](CC(=O)O)NC(=O)[C@H](CO)NC(=O)[C@@H](NC(=O)[C@H](Cc1ccccc1)NC(=O)[C@@H](NC(=O)CNC(=O)[C@H](Cc1c[nH]cn1)NC(=O)C(C)(C)NC(=O)[C@@H](N)Cc1c[nH]cn1)[C@@H](C)O)[C@@H](C)O)C(=O)N[C@@H](CCC(=O)O)C(=O)N[C@@H](Cc1c[nH]c2ccccc12)C(=O)N[C@@H](CC(C)C)C(=O)N[C@@H](CC(C)C)C(=O)N[C@@H](C)C(=O)NCC(=O)N[C@@H](Cc1c[nH]cn1)C(=O)N[C@@H](Cc1c[nH]cn1)C(=O)N[C@@H](Cc1c[nH]cn1)C(=O)N[C@@H](Cc1c[nH]cn1)C(=O)N[C@@H](Cc1c[nH]cn1)C(=O)N1CCC[C@H]1C(=O)N[C@@H](CO)C(=O)N[C@@H](Cc1c[nH]c2ccccc12)C(=O)O` [SRB103H] (H-H[Aib]HGTFTSDYSKYLDAKRAQEFIEWLLAGHHHHHPSW-OH), the maximum response (Emax) on GCGR [1] (setting [6]) was 173 ± 11%; on GCGR [1] (setting [9]) it was 27 ± 4%; at GLP-1R [2], 99 ± 4%; at GCGR [3], 107 ± 5%; at GCGR [4], 100%; at GLP-1R [5], 100%. The EC50 at GCGR [1] (setting [7]) was 251 pM; on GCGR [1] (setting [8]), 31.6 pM; on GLP-1R [2], 316 pM; at GCGR [3], 251 pM; on GCGR [4] it was 31600 pM; at GLP-1R [5], 398000 pM. Moreover, the “Resistance to DPP-4-mediated degradation” value at recombinant DPP-4 is recorded as “highly resistant to DPP-4-mediated degradation”.

`CC[C@H](C)[C@H](NC(=O)[C@H](Cc1ccccc1)NC(=O)[C@H](CCC(=O)O)NC(=O)[C@H](CCC(N)=O)NC(=O)[C@H](C)NC(=O)[C@H](CCCNC(=N)N)NC(=O)[C@H](CCCCN)NC(=O)[C@H](C)NC(=O)[C@H](CC(=O)O)NC(=O)[C@H](CC(C)C)NC(=O)[C@H](Cc1ccc(O)cc1)NC(=O)[C@H](CCCCN)NC(=O)[C@H](CO)NC(=O)[C@H](Cc1ccc(O)cc1)NC(=O)[C@H](CC(=O)O)NC(=O)[C@H](CO)NC(=O)[C@@H](NC(=O)[C@H](Cc1ccccc1)NC(=O)[C@@H](NC(=O)CNC(=O)[C@H](CCC(N)=O)NC(=O)C(C)(C)NC(=O)[C@@H](N)Cc1c[nH]cn1)[C@@H](C)O)[C@@H](C)O)C(=O)N[C@@H](CCC(=O)O)C(=O)N[C@@H](Cc1c[nH]c2ccccc12)C(=O)N[C@@H](CC(C)C)C(=O)N[C@@H](CC(C)C)C(=O)N[C@@H](C)C(=O)NCC(=O)N[C@@H](Cc1c[nH]cn1)C(=O)N[C@@H](Cc1c[nH]cn1)C(=O)N[C@@H](Cc1c[nH]cn1)C(=O)N[C@@H](Cc1c[nH]cn1)C(=O)N[C@@H](Cc1c[nH]cn1)C(=O)N1CCC[C@H]1C(=O)N[C@@H](CO)C(=O)N[C@@H](Cc1c[nH]c2ccccc12)C(=O)O` [SRB103Q] (H-H[Aib]QGTFTSDYSKYLDAKRAQEFIEWLLAGHHHHHPSW-OH): the Emax was found to be 284 ± 38% on GCGR [1] (setting [6]); 27 ± 4% at GCGR [1] (setting [9]); 103 ± 2% on GLP-1R [2]; 103 ± 4% on GCGR [3]; 77 ± 2% on GCGR [4]; 60 ± 2% at GLP-1R [5]. For the same compound, the EC50 is 200 pM on GCGR [1] (setting [7]); 15.8 pM on GCGR [1] (setting [8]); 316 pM on GLP-1R [2]; 398 pM at GCGR [3]; 50100 pM at GCGR [4]; 200000 pM at GLP-1R [5]. For the same compound, the “Resistance to DPP-4-mediated degradation” value at recombinant DPP-4 is given as “highly resistant to DPP-4-mediated degradation”.
